Source: patent US20110097745A1, “Method For Detecting Microbes” (priority 2007, published 2011)
Converted amounts (≈) assume the structure as drawn.

Columns and labels:
E. coli (W4110) = assay: overnight disk diffusion test; assay type: cell-based; conditions: disk 30 ppm, 16 hrs 37 C
Experimental: (§1) Infecting bacteria (10^6 cells/ml from overnight grown cultures) were spread on LA plates on which 15 mm disks, saturated with various antibiotics, had been placed. After incubating the plates at 37 degrees Celsius for 16 hrs the zone of inhibition was determined for each strain. (Abbreviations used in FIG. 1a and Table 1a: CAP—Chloramphenicol; KAN—Kanamycin; AMP—Ampicillin; CEP—Cephamezin GEN—Gentamycin).

P. aeroginosa [1] = assay: overnight disk diffusion test; assay type: cell-based; conditions: disk 30 ppm, 16 hrs 37 C
Experimental: as §1

S. typhimirium (772) = assay: overnight disk diffusion test; assay type: cell-based; conditions: disk 30 ppm, 16 hrs 37 C
Experimental: as §1

S. typhi = assay: microbe, parasite or virus in culture; assay type: cell-based
[2] = test system: infecting bacteria of urine samples; assay: antibiotics disc inhibition zone, urine samples (standard analysis); assay type: cell-based
Experimental: A standard analysis (urine culture colony count) was performed to evaluate bacterial load (Table 5a) and antibiotic susceptibility (Table 5b).

[3] = test system: infecting bacteria of urine samples; assay: BLT antibiotic susceptibility of urine samples; assay type: cell-based; design: BLT (luminescence): unit not given here; conditions: for BLT (luminescence): 3 hrs 37 C, concentrations given in Table 5; for antibiotic susceptibility of urine samples: key: R = resistant; S = susceptible
Experimental: Six fresh urine samples were obtained from a local clinic and examined for bacteriuria (>10^5 cells/mL urine) and the antibiotic susceptibility of the infecting bacteriuria. A tube containing a an antibiotic mixture that would eliminate all infecting bacteria but not effect the lux cells (Ampicillin, Kanamycin, Tetracyclin, and Chloramphenicol) served as a control.
Each urine sample was diluted in Medium 1 to yield a final concentration of 3%. 0.1 mL of the diluted samples were then incubated for 3 hrs. at 37 degrees Celsius in a microtitre plate, with or without an antimicrobial substance at the concentrations given in Table 5).
An equal volume of Medium 2 containing 10 ng/ml autoinducer and supplemented with 10^6 of the lux cells was then added to each well. The microtiter plate was then incubated at 28 degrees/Celsius and the luminescence was measured using a plate reader luminometer.
Luminescence was measured in the absence of antibiotics, in the presence of a mixture of antibiotics and in the presence of a single antibiotic from the mixture.
When the ratio of the luminescence measured in the presence of the single antibiotic to that measured in the presence of the antibiotic mix exceeds a second predetermined constant (e.g. 3) then the infecting bacteria are […] to the antibiotic.

S. aureus [4] = assay: BLT (bioluminescence test) MIC determination
E. coli (W4100) = assay: Gram differentiation with CTAB, tester bacteria luminescence; assay type: cell-based; conditions: +CTAB (3 ppm), 2 hrs 37 C, read after 60 min
Experimental: (§2) Gram-positive bacteria are more sensitive than Gram-negative bacteria to low concentrations of the cationic detergent CTAB. Overnight grown cultures of different strains of infecting bacteria were washed and suspended in saline. About 10^5 cells/well were aliquoted in 0.1 mL Medium 1 (Davis, 0.1% glucose, 25 ppm YE) in microtiter plates with or without 3 ppm of CTAB. After 2 hrs at 37 degrees Centigrade/Celsius?, 0.15 mL of Medium 2 (+10 ng/mL autoinducer) were added to each well, together with 10^6 cells/mL lux-cells. Luminescence was recorded after 60 min.

P. aeroginosa [5] = assay: as above; assay type: cell-based; conditions: +CTAB (3 ppm), 2 hrs 37 C, read after 60 min
Experimental: as §2

S. aureus [6] = assay: as above; assay type: cell-based; conditions: +CTAB (3 ppm), 2 hrs 37 C, read after 60 min
Experimental: as §2

S. typhi (772) = assay: as above; assay type: cell-based; conditions: +CTAB (3 ppm), 2 hrs 37 C, read after 60 min
Experimental: as §2

Streptococcus sp. = assay: as above; assay type: cell-based; conditions: +CTAB (3 ppm), 2 hrs 37 C, read after 60 min
Experimental: as §2

O=C(N[C@H](CO)[C@H](O)c1ccc([N+](=O)[O-])cc1)C(Cl)Cl [Chloramphenicol]
zone of inhibition (E. coli (W4110)): 25 mm | zone of inhibition (P. aeroginosa [1]): 15 mm | zone of inhibition (S. typhimirium (772)): 30 mm | LU, fold increase over control (no antibiotics added) (S. typhi; 0.19 ppm): 0.7 | LU, fold increase over control (no antibiotics added) (S. typhi; 0.39 ppm): 0.72 | LU, fold increase over control (no antibiotics added) (S. typhi; 0.78 ppm): 0.63 | LU, fold increase over control (no antibiotics added) (S. typhi; 1.5 ppm): 0.74 | LU, fold increase over control (no antibiotics added) (S. typhi; 3.1 ppm): 1.9 | LU, fold increase over control (no antibiotics added) (S. typhi; 6.25 ppm): 3.61 | LU, fold increase over control (no antibiotics added) (S. typhi; 12.5 ppm): 5.42 | LU, fold increase over control (no antibiotics added) (S. typhi; 25 ppm): 6.84 | LU, fold increase over control (no antibiotics added) (S. typhi; 50 ppm): 5.84 | MIC (S. typhi; Salmonella enterica, TYPHI, lowest concentration giving two-fold increase of tester luminescence above control): ~3 µg/mL (≈ 9.28 µM) | Antibiotics disc inhibition zone ([2]; urine sample 1, 30 ppm): 5 mm | Antibiotics disc inhibition zone ([2]; urine sample 2, 30 ppm): 4 mm | Antibiotics disc inhibition zone ([2]; urine sample 3, 30 ppm): 7 mm | Antibiotics disc inhibition zone ([2]; urine sample 4, 30 ppm): 5 mm | Antibiotics disc inhibition zone ([2]; urine sample 6, 30 ppm): 6 mm | antibiotic susceptibility of urine samples ([3]; urine sample 1): S | BLT (luminescence) ([3]; urine sample 1, 3% urine): 62 | antibiotic susceptibility of urine samples ([3]; urine sample 2): S | BLT (luminescence) ([3]; urine sample 2, 3% urine): 46 | antibiotic susceptibility of urine samples ([3]; urine sample 3): S | BLT (luminescence) ([3]; urine sample 3, 3% urine): 36 | antibiotic susceptibility of urine samples ([3]; urine sample 4): S | BLT (luminescence) ([3]; urine sample 4, 3% urine): 31.2 | antibiotic susceptibility of urine samples ([3]; urine sample 5): S | BLT (luminescence) ([3]; urine sample 5, 3% urine): 13 | antibiotic susceptibility of urine samples ([3]; urine sample 6): S | BLT (luminescence) ([3]; urine sample 6, 3% urine): 41 | LU, fold increase over control (no antibiotics added) (S. aureus [4]; 0.781 ppm): 0.8 | LU, fold increase over control (no antibiotics added) (S. aureus [4]; 1.562 ppm): 1.3 | LU, fold increase over control (no antibiotics added) (S. aureus [4]; 3.125 ppm): 2.8 | LU, fold increase over control (no antibiotics added) (S. aureus [4]; 6.25 ppm): 5.2 | LU, fold increase over control (no antibiotics added) (S. aureus [4]; 12.5 ppm): 7.2 | LU, fold increase over control (no antibiotics added) (S. aureus [4]; 25 ppm): 11.5 | LU, fold increase over control (no antibiotics added) (S. aureus [4]; 50 ppm): 17.6 | LU, fold increase over control (no antibiotics added) (S. aureus [4]; 100 ppm): 70.1 | MIC (S. aureus [4]; Staphylococcus aureus): ~1.5 µg/mL (≈ 4.64 µM)

CCCCCCCCCCCCCCCC[N+](C)(C)C.[Br-] [CTAB, Cetyltrimethylammonium bromide]
luminescence of tester bacteria (E. coli (W4100)): 52 LU | luminescence of tester bacteria (P. aeroginosa [5]): 111 LU | luminescence of tester bacteria (S. aureus [6]): 80,405 LU | luminescence of tester bacteria (S. typhi (772)): 64 LU | luminescence of tester bacteria (Streptococcus sp.): 10,154 LU
